Measurements published in patent EP0574992A1, “5-(1,2,4-Triazol-1-ylmethyl)-3H-isobenzofuran-1-one derivatives, their preparation and use as aromatase inhibitors” (GLAXO GROUP LIMITED, priority 1992, dated 1993).

How the values were obtained:
[1] = system: mouse; experiment: Acute toxicity study, single oral doses; type: in vivo; details: single doses up to 2g/kg p.o.
[2] = target: T1, human placental aromatase (Homo sapiens, UniProt P11511); experiment: Human placental aromatase assay ([3H]-H2O release), in vitro; type: biochemical; details: 1 mM NADPH, read-out: Aromatase inhibitory activity - in vitro IC₅₀
T1 construct: Human placental aromatase was assayed according to the method of Thomson and Siiteri; from tissue; host or cells: human placenta
T1 sequence (P11511 1-503): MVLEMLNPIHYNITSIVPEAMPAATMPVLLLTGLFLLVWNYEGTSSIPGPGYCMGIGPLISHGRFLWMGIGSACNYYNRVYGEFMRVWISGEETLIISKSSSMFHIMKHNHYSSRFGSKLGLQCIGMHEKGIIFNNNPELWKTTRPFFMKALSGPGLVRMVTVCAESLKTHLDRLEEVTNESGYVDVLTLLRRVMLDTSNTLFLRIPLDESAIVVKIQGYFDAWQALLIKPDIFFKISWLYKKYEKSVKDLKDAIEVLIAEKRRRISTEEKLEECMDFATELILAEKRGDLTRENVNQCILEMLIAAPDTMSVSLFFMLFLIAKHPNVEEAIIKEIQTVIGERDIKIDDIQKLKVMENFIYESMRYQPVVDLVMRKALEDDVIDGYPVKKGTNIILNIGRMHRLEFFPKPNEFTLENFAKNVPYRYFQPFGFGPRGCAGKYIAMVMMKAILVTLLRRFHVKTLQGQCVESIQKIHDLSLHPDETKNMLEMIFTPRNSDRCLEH
Method: Aromatase inhibitory activity may be determined using human placental aromatase.
Human placental aromatase was assayed according to the method of Thomson and Siiteri, Hormone Res. (1979) 11:179-185, except that the assay buffer contained 1 mM NADPH instead of the NADPH-generating system. [³H]-H₂O, released as a by-product of aromatization, was separated from substrate using C18 mini-columns.

Row | Compound | Acute toxicity (tolerability) [1] | IC50 [2] [nM]
1 | CC1(C)OC(=O)c2ccc(C(c3c(F)cc([N+](=O)[O-])cc3F)n3cncn3)cc21 (racemic) [Example 1, 5-[(2,6-Difluoro-4-nitrophenyl)-1,2,4-triazol-1-ylmethyl]-3,3-dimethyl-3H-isobenzofuran-1-one] | well tolerated | 15
2 | CC1(C)OC(=O)c2ccc(C(c3ccc(C#N)cc3)n3cncn3)cc21 (racemic) [Example 7, 4-[(3,3-Dimethyl-1-oxo-1,3-dihydro-isobenzofuran-5-yl)-1,2,4-triazol-1 - ylmethyl]-benzonitrile] |  | 73
3 | CC1(C)OC(=O)c2ccc(C(c3ccc([N+](=O)[O-])cc3F)n3cncn3)cc21 (stereo not shown) [Example 2, 5-[(2-Fluoro-4-nitrophenyl)-1,2,4-triazol-1-ylmethyl]-3,3-dimethyl-3H-isobenzofuran-1-one] |  | 63
4 | CC1(C)OC(=O)c2ccc(C(c3c(F)cc(C#N)cc3F)n3cncn3)cc21 (stereo not shown) [Example 3, 4-[(3.3-Dimethyl-1-oxo-1,3-dihydro-isobenzofuran-5-yl)-1,2,4-triazol-1-ylmethyl]-3,5-difluorobenzonitrile] |  | 24
5 | CC1(C)OC(=O)c2ccc(C(c3ccc([N+](=O)[O-])cc3)n3cncn3)cc21 (stereo not shown) [Example 5, 5-[(4-Nitrophenyl)-1,2,4-triazol-1-ylmethyl]-3,3-dimethyl-3H-isobenzofuran-1-one] |  | 51
6 | CC1(C)OC(=O)c2ccc(C(c3ccc(C#N)cc3F)n3cncn3)cc21 (stereo not shown) [Example 6, 4-[(3,3-Dimethyl-1-oxo-1,3-dihydro-isobenzofuran-5-yl)-1,2,4-triazol-1 - ylmethyl]-3-fluorobenzonitrile] |  | 83
